Active and inactive are the calls of the source. No cut-off for these calls is given here.
How the values were obtained:
[1] = target: T1, Cell division protein FtsZ (Pseudomonas aeruginosa (strain ATCC 15692 / PAO1 / 1C / PRS 101 / LMG12228), UniProt P47204); test: Inhibition of Pseudomonas aeruginosa FtsZ GTPase activity by spectrophotometric assay
T1 sequence (P47204 whole entry): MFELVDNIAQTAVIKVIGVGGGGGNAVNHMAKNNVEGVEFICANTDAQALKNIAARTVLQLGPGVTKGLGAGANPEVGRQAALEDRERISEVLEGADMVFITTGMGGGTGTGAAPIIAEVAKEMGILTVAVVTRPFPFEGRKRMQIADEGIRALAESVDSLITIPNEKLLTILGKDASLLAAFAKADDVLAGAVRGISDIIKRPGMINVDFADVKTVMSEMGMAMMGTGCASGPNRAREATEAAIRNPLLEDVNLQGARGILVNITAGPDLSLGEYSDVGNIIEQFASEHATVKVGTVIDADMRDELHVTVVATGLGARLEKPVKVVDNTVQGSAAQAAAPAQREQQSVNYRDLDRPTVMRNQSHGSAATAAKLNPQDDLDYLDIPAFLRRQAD

Staphylococcus aureus = test: Antibacterial activity against Staphylococcus aureus ATCC 25923 at 20 g/L by disc diffusion method; assay type: functional; conditions: for zone of inhibition at 20000 µg/mL: read-out: IZ
Escherichia coli = test: Antibacterial activity against Escherichia coli ATCC 25922 by disc diffusion method; assay type: functional, organism-based

| Structure (SMILES) | IC50 [1] [µM] | zone of inhibition at 20000 µg/mL (Staphylococcus aureus) [mm] | Activity (Escherichia coli) | Activity (Staphylococcus aureus) |
| --- | --- | --- | --- | --- |
| Nc1nc(Cl)c2ncn(C[C@H](NC(=O)Cc3ccccc3)C(=O)O)c2n1 | 2000 | – | inactive | inactive |
| C=CCNC(=O)[C@H](Cn1cnc2c(Cl)nc(N)nc21)NC(=O)N[C@H](C)c1ccccc1 | 1800 | – | inactive | inactive |
| Nc1nc(Cl)c2ncn(C[C@H](NC(=O)Nc3ccccc3)C(=O)O)c2n1 | 450 | 10 | inactive | – |
| NC[C@H]1O[C@H](O[C@H]2[C@H](O)[C@@H](O[C@H]3O[C@H](CO)[C@@H](O)[C@H](N)[C@H]3O)[C@H](N)C[C@@H]2N)[C@H](O)[C@@H](O)[C@@H]1O | – | – | inactive | – |

More lines, main results first:

| IC50 [1] [µM] | Structure (SMILES) | zone of inhibition at 20000 µg/mL (Staphylococcus aureus) [mm] | Activity (Escherichia coli) | Activity (Staphylococcus aureus) |
| --- | --- | --- | --- | --- |
| 1800 | CCCNC(=O)[C@H](Cn1cnc2c(Cl)nc(N)nc21)NC(=O)N[C@H](C)c1ccccc1 | 11 | inactive | – |
| 700 | CCCNC(=O)[C@H](Cn1cnc2c(Cl)nc(N)nc21)NS(C)(=O)=O | 15 | inactive | – |
| 600 | C=CCNC(=O)[C@H](Cn1cnc2c(Cl)nc(N)nc21)NS(C)(=O)=O | 28 | inactive | – |
| 1700 | C=CCNC(=O)[C@H](Cn1cnc2c(Cl)nc(N)nc21)NS(=O)(=O)c1ccc(C)cc1 | – | inactive | inactive |
| 1200 | Nc1nc(Cl)c2ncn(C[C@H](NS(=O)(=O)c3ccccc3)C(=O)O)c2n1 | – | inactive | inactive |
| 2600 | CCCNC(=O)[C@H](Cn1cnc2c(Cl)nc(N)nc21)NS(=O)(=O)c1ccc(C)cc1 | 11 | inactive | – |
